Results as given in US5488060A, “Substituted thiadiazoles, compositions containing them and their use as antimicrobial and marine antifouling agents” (The Dow Chemical Company, priority 1994, dated 1996).
Converted amounts (≈) assume the structure as drawn. Read-outs that look alike come from different tables or passages of the source.

How the values were obtained:
Assay type in all cases: cell-based
Proteus vulgaris (Pv) = experiment: Minimum inhibitory concentration (MIC) in nutrient agar, Proteus vulgaris; conditions: 48 h
In short: (§1)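 Bacteria (10^8 CFU/mL suspensions) were replicator-spotted onto nutrient agar plates, neutral pH 6.8 or alkaline pH 8.2, containing test compound at 0–500 ppm. After 48 h at 30° C, growth inhibition was read to give the MIC.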

Fusarium oxysporum (Fo) = experiment: Minimum inhibitory concentration (MIC) in malt yeast agar, Fusarium oxysporum
In short: (§2)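 Malt yeast agar pH 5.5 + cpd (from 1% soln in acetone/water) at final 500–zero ppm, poured at 48 °C, dried 24 h. Inoculum: 7-day 30 °C slants suspended in saline/octylphenoxy polyethoxy ethanol, diluted 1:9, replicator-spotted. Incubated 30 °C; read 48 h yeast, 72 h fungi.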

[1] = system: Staphylococcus aureus (Sa); experiment: Minimum inhibitory concentration (MIC) in nutrient agar, Staphylococcus aureus
In short: as §1

Escherichia coli (Ec) = experiment: Minimum inhibitory concentration (MIC) in nutrient agar, Escherichia coli
In short: as §1

[2] = system: Pseudomonas aeruginosa (PRD-10); experiment: Minimum inhibitory concentration (MIC) in nutrient agar, Pseudomonas aeruginosa PRD-10
In short: as §1

[3] = system: Saccharomyces cerevisiae (Sc); experiment: Minimum inhibitory concentration (MIC) in malt yeast agar, Saccharomyces cerevisiae; conditions: pH 5.5, malt yeast agar, 30° C., 48 hours for yeast, read-out: Minimum Inhibitory Concentration, SC
In short: as §2

Candida albicans (Ca) = experiment: Minimum inhibitory concentration (MIC) in malt yeast agar, Candida albicans
In short: as §2

Trichoderma viride (Tv) = experiment: Minimum inhibitory concentration (MIC) in malt yeast agar, Trichoderma viride
In short: as §2

[4] = system: Enterobacter aerogenes (Ea); experiment: Minimum inhibitory concentration (MIC) in nutrient agar, Enterobacter aerogenes; conditions: Klebsiella aerogenes, 48 h
In short: as §1

Aspergillus niger (An) = experiment: Minimum inhibitory concentration (MIC) in malt yeast agar, Aspergillus niger
In short: as §2

[5] = system: Penicillium chrysogenum (Pc); experiment: Minimum inhibitory concentration (MIC) in malt yeast agar, Penicillium chrysogenum
In short: as §2

Bacillus subtilis (Bs) = experiment: Minimum inhibitory concentration (MIC) in nutrient agar, Bacillus subtilis
In short: as §1

[6] = system: Salmonella choleraesuis (Se); experiment: Minimum inhibitory concentration (MIC) in nutrient agar, Salmonella choleraesuis; conditions: Salmonella enterica, 48 h
In short: as §1

[7] = system: Klebsiella pneumoniae (Kp); experiment: Minimum inhibitory concentration (MIC) in nutrient agar, Klebsiella pneumoniae
In short: as §1

[8] = system: Aureobasidium pullulan (Ap); experiment: Minimum inhibitory concentration (MIC) in malt yeast agar, Aureobasidium pullulan; conditions: pH 5.5; malt yeast agar, 30° C.; read-out: Minimum Inhibitory Concentration, Ap
In short: as §2

[9] = system: Pseudomonas aeruginosa (Pa); experiment: Minimum inhibitory concentration (MIC) in nutrient agar, Pseudomonas aeruginosa; conditions: 30° C., 48 hours, read-out: Minimum Inhibitory Concentration, Pa
In short: as §1

[10] = pH 6.8, read-out: Minimum Inhibitory Concentration, Pv
[11] = pH 8.2, read-out: Minimum Inhibitory Concentration, Pv
[12] = 72 h, pH 5.5, read-out: Minimum Inhibitory Concentration, Fo
[13] = 48 h, pH 8.2, read-out: Minimum Inhibitory Concentration, Sa
[14] = pH 6.8, nutrient agar, 30° C., 48 hours, read-out: Minimum Inhibitory Concentration, Sa
[15] = 48 h, pH 6.8, read-out: Minimum Inhibitory Concentration, Ec
[16] = pH 8.2, nutrient agar, 30° C., 48 hours, read-out: Minimum Inhibitory Concentration, Ec
[17] = 48 h, pH 6.8, read-out: Minimum Inhibitory Concentration, PRD
[18] = 48 h, pH 8.2, read-out: Minimum Inhibitory Concentration, PRD
[19] = 48 h, pH 5.5, read-out: Minimum Inhibitory Concentration, Ca
[20] = 72 h, pH 5.5, read-out: Minimum Inhibitory Concentration, Tv
[21] = pH 6.8, read-out: Minimum Inhibitory Concentration, Ea
[22] = pH 8.2, read-out: Minimum Inhibitory Concentration, Ea
[23] = pH 5.5, malt yeast agar, 30° C., 72 hours for fungi, read-out: Minimum Inhibitory Concentration, An
[24] = pH 5.5, malt yeast agar, 30° C., 72 hours for fungi, read-out: Minimum Inhibitory Concentration, PC
[25] = 48 h, pH 6.8, read-out: Minimum Inhibitory Concentration, Bs
[26] = 48 h, pH 8.2, read-out: Minimum Inhibitory Concentration, Bs
[27] = pH 6.8, read-out: Minimum Inhibitory Concentration, SC
[28] = pH 8.2, read-out: Minimum Inhibitory Concentration, SC
[29] = 48 h, pH 8.2, read-out: Minimum Inhibitory Concentration, Kp
[30] = pH 6.8, nutrient agar, 30° C., 48 hours, read-out: Minimum Inhibitory Concentration, Kp
[31] = pH 5.5, malt yeast agar, 30° C., 72 hours for fungi, read-out: Minimum Inhibitory Concentration, Tv
[32] = pH 6.8, nutrient agar, 30° C., 48 hours, read-out: Minimum Inhibitory Concentration, Bs
[33] = pH 8.2, nutrient agar, 30° C., 48 hours, read-out: Minimum Inhibitory Concentration, Bs
[34] = pH 5.5, malt yeast agar, 30° C., 72 hours for fungi, read-out: Minimum Inhibitory Concentration, Fo
[35] = pH 5.5, malt yeast agar, 30° C., 48 hours for yeast, read-out: Minimum Inhibitory Concentration, Ca
[36] = 48 h, pH 8.2, read-out: Minimum Inhibitory Concentration, Ec
[37] = 72 h, pH 5.5, read-out: Minimum Inhibitory Concentration, An

SMILES	MIC (Proteus vulgaris (Pv); [10]) [mg/L]	MIC (Proteus vulgaris (Pv); [11]) [mg/L]	MIC (Fusarium oxysporum (Fo); [12]) [mg/L]	MIC [1, 13] [mg/L]	MIC [1, 14] [mg/L]	MIC (Escherichia coli (Ec); [15]) [mg/L]	MIC (Escherichia coli (Ec); [16]) [mg/L]	MIC [2, 17] [mg/L]	MIC [2, 18] [mg/L]	MIC [3] [mg/L]	MIC [4, 21] [mg/L]	MIC [4, 22] [mg/L]	MIC [5, 24] [mg/L]	MIC [6, 27] [mg/L]	MIC [6, 28] [mg/L]	MIC [7, 29] [mg/L]	MIC [7, 30] [mg/L]	MIC [8] [mg/L]	MIC ([9]; pH 6.8, nutrient agar) [mg/L]	MIC ([9]; pH 8.2, nutrient agar) [mg/L]	other results
N#CSCSc1nsnc1-c1ccc(Cl)cc1 [Example XVIII, 4-(4-Chlorophenyl)-3-thiocyanatomethylthio-1,2,5-thiadiazole]	500 (≈ 1670 µM)	> 500	100 (≈ 334 µM)	> 500	500 (≈ 1670 µM)	500 (≈ 1670 µM)	250 (≈ 834 µM)	500 (≈ 1670 µM)	> 500	9 (≈ 30 µM)	500 (≈ 1670 µM)	> 500	9 (≈ 30 µM)	500 (≈ 1670 µM)	> 500	> 500	500 (≈ 1670 µM)	9 (≈ 30 µM)	500 (≈ 1670 µM)	> 500	MIC (Candida albicans (Ca); [19]): 250 mg/L (≈ 834 µM); MIC (Trichoderma viride (Tv); [20]): 250 mg/L (≈ 834 µM); MIC (Aspergillus niger (An); [23]): 9 mg/L (≈ 30 µM); MIC (Bacillus subtilis (Bs); [25]): 500 mg/L (≈ 1670 µM); MIC (Bacillus subtilis (Bs); [26]): 500 mg/L (≈ 1670 µM)
N#CSCSc1nsnc1-c1ccccc1Cl [Example XX, 4-(2-Chlorophenyl)-3-thiocyanatomethylthio-1,2,5-thiadiazole]	500 (≈ 1670 µM)	> 500	25 (≈ 83.4 µM)	–	9 (≈ 30 µM)	500 (≈ 1670 µM)	250 (≈ 834 µM)	500 (≈ 1670 µM)	> 500	9 (≈ 30 µM)	500 (≈ 1670 µM)	> 500	9 (≈ 30 µM)	500 (≈ 1670 µM)	> 500	> 500	500 (≈ 1670 µM)	9 (≈ 30 µM)	500 (≈ 1670 µM)	> 500	MIC ([1]; pH 8.2, nutrient agar, 30° C., 48 hours, read-out: Minimum Inhibitory Concentration, Sa): 9 mg/L (≈ 30 µM); MIC (Candida albicans (Ca); [19]): 250 mg/L (≈ 834 µM); MIC (Trichoderma viride (Tv); [31]): > 500 mg/L; MIC (Aspergillus niger (An); [23]): 9 mg/L (≈ 30 µM); MIC (Bacillus subtilis (Bs); [32]): 9 mg/L (≈ 30 µM); MIC (Bacillus subtilis (Bs); [33]): 9 mg/L (≈ 30 µM)
N#CSCSc1nsnc1-c1ccc(F)cc1 [Example XXI, 4-(4-Fluorophenyl)-3-thiocyanatomethylthio-1,2,5-thiadiazole]	500 (≈ 1760 µM)	> 500	–	> 500	500 (≈ 1760 µM)	500 (≈ 1760 µM)	250 (≈ 882 µM)	–	> 500	9 (≈ 31.8 µM)	500 (≈ 1760 µM)	> 500	9 (≈ 31.8 µM)	500 (≈ 1760 µM)	> 500	> 500	500 (≈ 1760 µM)	9 (≈ 31.8 µM)	–	> 500	MIC (Fusarium oxysporum (Fo); [34]): 9 mg/L (≈ 31.8 µM); MIC ([2]; pH 6.8, nutrient agar, 30° C., 48 hours, read-out: Minimum Inhibitory Concentration, PRD): 250 mg/L (≈ 882 µM); MIC (Candida albicans (Ca); [35]): 9 mg/L (≈ 31.8 µM); MIC (Trichoderma viride (Tv); [31]): 25 mg/L (≈ 88.2 µM); MIC (Aspergillus niger (An); [23]): 9 mg/L (≈ 31.8 µM); MIC (Bacillus subtilis (Bs); [32]): 9 mg/L (≈ 31.8 µM); MIC (Bacillus subtilis (Bs); [33]): 100 mg/L (≈ 353 µM)
COc1cccc(-c2nsnc2SCSC#N)c1 [Example XXII, 4-(3-Methoxyphenyl)-3-thiocyanatomethylthio-1,2,5-thiadiazole]	500 (≈ 1690 µM)	> 500	50 (≈ 169 µM)	500 (≈ 1690 µM)	500 (≈ 1690 µM)	500 (≈ 1690 µM)	–	500 (≈ 1690 µM)	> 500	9 (≈ 30.5 µM)	500 (≈ 1690 µM)	> 500	25 (≈ 84.6 µM)	500 (≈ 1690 µM)	> 500	> 500	500 (≈ 1690 µM)	9 (≈ 30.5 µM)	500 (≈ 1690 µM)	> 500	MIC (Escherichia coli (Ec); [36]): 500 mg/L (≈ 1690 µM); MIC (Candida albicans (Ca); [19]): 250 mg/L (≈ 846 µM); MIC (Trichoderma viride (Tv); [20]): 250 mg/L (≈ 846 µM); MIC (Aspergillus niger (An); [37]): 50 mg/L (≈ 169 µM); MIC (Bacillus subtilis (Bs); [26]): 25 mg/L (≈ 84.6 µM); MIC (Bacillus subtilis (Bs); [32]): 9 mg/L (≈ 30.5 µM)
COc1ccc(-c2nsnc2SCSC#N)cc1 [Example XXIII, 4-(4-Methoxyphenyl)-3-thiocyanatomethylthio-1,2,5-thiadiazole]	> 500	> 500	100 (≈ 339 µM)	> 500	> 500	> 500	–	> 500	> 500	9 (≈ 30.5 µM)	> 500	500 (≈ 1690 µM)	–	> 500	> 500	> 500	> 500	9 (≈ 30.5 µM)	> 500	> 500	MIC (Escherichia coli (Ec); [36]): > 500 mg/L; MIC (Candida albicans (Ca); [19]): 250 mg/L (≈ 846 µM); MIC (Trichoderma viride (Tv); [20]): 250 mg/L (≈ 846 µM); MIC (Aspergillus niger (An); [37]): 25 mg/L (≈ 84.6 µM); MIC ([5]; 72 h, pH 5.5, read-out: Minimum Inhibitory Concentration, PC): 50 mg/L (≈ 169 µM); MIC (Bacillus subtilis (Bs); [25]): 500 mg/L (≈ 1690 µM); MIC (Bacillus subtilis (Bs); [26]): 250 mg/L (≈ 846 µM)
CSc1ccc(-c2nsnc2SCSC#N)cc1 [Example XXIV, 4-(4-Methylthiophenyl)-3-thiocyanatomethylthio-1,2,5-thiadiazole]	500 (≈ 1610 µM)	> 500	–	> 500	500 (≈ 1610 µM)	500 (≈ 1610 µM)	250 (≈ 803 µM)	500 (≈ 1610 µM)	> 500	500 (≈ 1610 µM)	500 (≈ 1610 µM)	> 500	500 (≈ 1610 µM)	500 (≈ 1610 µM)	> 500	> 500	500 (≈ 1610 µM)	500 (≈ 1610 µM)	500 (≈ 1610 µM)	> 500	MIC (Fusarium oxysporum (Fo); [34]): 500 mg/L (≈ 1610 µM); MIC (Candida albicans (Ca); [35]): 500 mg/L (≈ 1610 µM); MIC (Trichoderma viride (Tv); [31]): 500 mg/L (≈ 1610 µM); MIC (Aspergillus niger (An); [23]): 500 mg/L (≈ 1610 µM); MIC (Bacillus subtilis (Bs); [25]): 500 mg/L (≈ 1610 µM); MIC (Bacillus subtilis (Bs); [26]): 500 mg/L (≈ 1610 µM)
